# Publication PMC9045483 (RSC Advances, 2022)
# Legend:
# HCT116 = test: In vitro cytotoxic activity, MTT colorimetric assay, HCT116; type: cell-based; conditions: Homo sapiens, HCT-116, read-out: IC50 HCT116
# HepG2 = test: In vitro cytotoxic activity, MTT colorimetric assay, HepG2; type: cell-based; conditions: Homo sapiens, HepG2, read-out: IC50 HepG2
# A549 = test: In vitro cytotoxic activity, MTT colorimetric assay, A549; type: cell-based; conditions: Homo sapiens, A549, read-out: IC50 A549
# MCF-7 = test: In vitro cytotoxic activity, MTT colorimetric assay, MCF-7; type: cell-based; conditions: Homo sapiens, MCF7, read-out: IC50 MCF-7
# VEGFR-2 = VEGFR-2 (Homo sapiens, UniProt P35968); test: biochemical
# EGFR^T790M = EGFR^T790M (Homo sapiens, UniProt P00533, T790M); test: EGFR^T790M kinase inhibitory assay; type: biochemical
# EGFR^T790M, sequence (P00533 25-1210 T790M): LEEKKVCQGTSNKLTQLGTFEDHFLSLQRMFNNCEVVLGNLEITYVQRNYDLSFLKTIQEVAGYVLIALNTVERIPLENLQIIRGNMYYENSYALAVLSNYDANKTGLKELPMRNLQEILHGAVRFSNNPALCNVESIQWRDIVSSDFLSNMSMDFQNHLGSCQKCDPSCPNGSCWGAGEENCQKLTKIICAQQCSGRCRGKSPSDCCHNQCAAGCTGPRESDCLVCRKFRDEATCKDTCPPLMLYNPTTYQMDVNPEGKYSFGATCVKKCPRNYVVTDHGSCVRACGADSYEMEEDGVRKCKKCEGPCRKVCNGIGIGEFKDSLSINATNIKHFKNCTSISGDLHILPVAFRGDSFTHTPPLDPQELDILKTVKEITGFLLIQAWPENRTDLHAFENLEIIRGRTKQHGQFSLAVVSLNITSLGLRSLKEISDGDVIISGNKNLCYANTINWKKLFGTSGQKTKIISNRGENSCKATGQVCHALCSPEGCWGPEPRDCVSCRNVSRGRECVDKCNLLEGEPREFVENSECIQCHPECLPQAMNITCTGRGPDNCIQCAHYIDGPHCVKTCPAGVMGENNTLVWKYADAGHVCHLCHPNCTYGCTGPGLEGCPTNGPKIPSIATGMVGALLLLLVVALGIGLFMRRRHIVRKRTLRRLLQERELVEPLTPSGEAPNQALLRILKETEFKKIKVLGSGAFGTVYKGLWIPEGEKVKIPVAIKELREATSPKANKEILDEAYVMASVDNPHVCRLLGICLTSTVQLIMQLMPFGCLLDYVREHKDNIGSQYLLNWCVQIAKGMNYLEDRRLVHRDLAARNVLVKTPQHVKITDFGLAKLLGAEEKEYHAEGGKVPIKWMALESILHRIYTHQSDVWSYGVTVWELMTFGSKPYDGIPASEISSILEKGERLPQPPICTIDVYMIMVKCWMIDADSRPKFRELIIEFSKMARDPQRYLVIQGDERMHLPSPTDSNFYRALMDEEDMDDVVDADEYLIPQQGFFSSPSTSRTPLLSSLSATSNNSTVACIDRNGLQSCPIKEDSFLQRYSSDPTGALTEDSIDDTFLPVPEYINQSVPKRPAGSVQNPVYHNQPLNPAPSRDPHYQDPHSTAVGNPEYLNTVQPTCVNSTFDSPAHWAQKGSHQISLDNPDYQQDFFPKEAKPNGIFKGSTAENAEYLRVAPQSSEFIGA
# VEGFR-2, sequence (P35968 20-1356): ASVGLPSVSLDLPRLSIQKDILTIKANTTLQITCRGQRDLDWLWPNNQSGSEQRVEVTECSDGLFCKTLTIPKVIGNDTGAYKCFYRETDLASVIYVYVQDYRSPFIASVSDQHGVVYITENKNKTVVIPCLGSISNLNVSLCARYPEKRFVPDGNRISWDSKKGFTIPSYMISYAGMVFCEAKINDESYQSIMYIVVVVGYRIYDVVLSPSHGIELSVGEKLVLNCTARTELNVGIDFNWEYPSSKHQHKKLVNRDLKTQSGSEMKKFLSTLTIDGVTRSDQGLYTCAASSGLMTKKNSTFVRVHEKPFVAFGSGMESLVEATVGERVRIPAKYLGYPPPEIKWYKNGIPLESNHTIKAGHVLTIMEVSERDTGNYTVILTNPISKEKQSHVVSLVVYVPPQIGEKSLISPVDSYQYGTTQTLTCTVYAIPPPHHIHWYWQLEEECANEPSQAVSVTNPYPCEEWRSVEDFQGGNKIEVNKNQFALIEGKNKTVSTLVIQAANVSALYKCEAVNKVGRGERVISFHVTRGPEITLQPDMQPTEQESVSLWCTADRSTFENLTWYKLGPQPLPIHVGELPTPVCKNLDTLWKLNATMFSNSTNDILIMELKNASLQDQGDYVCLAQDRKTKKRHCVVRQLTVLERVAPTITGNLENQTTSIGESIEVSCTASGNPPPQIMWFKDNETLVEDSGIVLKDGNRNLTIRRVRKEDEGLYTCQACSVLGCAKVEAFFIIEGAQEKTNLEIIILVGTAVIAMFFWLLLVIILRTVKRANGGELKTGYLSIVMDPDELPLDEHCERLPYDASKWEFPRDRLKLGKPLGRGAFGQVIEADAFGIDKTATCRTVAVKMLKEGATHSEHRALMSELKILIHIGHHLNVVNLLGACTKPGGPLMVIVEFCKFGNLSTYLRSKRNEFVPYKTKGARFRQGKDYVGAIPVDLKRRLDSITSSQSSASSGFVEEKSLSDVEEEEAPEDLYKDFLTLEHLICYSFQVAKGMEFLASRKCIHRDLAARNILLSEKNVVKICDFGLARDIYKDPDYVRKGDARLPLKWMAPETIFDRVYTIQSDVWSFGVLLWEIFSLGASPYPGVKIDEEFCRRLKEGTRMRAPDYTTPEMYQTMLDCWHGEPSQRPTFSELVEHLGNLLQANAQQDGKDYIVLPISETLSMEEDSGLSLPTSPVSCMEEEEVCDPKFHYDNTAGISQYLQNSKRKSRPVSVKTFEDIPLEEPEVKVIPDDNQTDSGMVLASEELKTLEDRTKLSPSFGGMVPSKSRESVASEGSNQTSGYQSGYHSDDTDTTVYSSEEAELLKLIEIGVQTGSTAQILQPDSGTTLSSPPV
IC50 (VEGFR-2) [µM],IC50 (EGFR^T790M) [µM],SMILES,IC50 (HCT116) [µM],IC50 (HepG2) [µM],IC50 (A549) [µM],IC50 (MCF-7) [µM]
,,"O=C1NC(=O)C(=Cc2ccco2)S1 [Compound 3, 5-(furan-2-ylmethylene)thiazolidine-2,4-dione]",58.2,,,
0.255,0.42,"O=C(CN1C(=O)SC(=Cc2cccs2)C1=O)Nc1ccc(Br)cc1 [Compound 4d, N-(4-Bromophenyl)-2-[2,4-dioxo-5-(thiophen-2-ylmethylene)thiazolidin-3-yl]acetamide]",16.6 ± 3.9,13.5 ± 3.9,19 ± 3.9,22.7 ± 3.9
0.247,0.35,"COc1ccc(NC(=O)CN2C(=O)SC(=Cc3ccco3)C2=O)cc1 [Compound 5f, 2-[5-(Furan-2-ylmethylene)-2,4-dioxothiazolidin-3-yl]-N-(4-methoxyphenyl)acetamide]",15.7 ± 3.9,11 ± 3.9,13 ± 3.9,18.5 ± 3.9
,,"O=C(CN1C(=O)SC(=Cc2ccco2)C1=O)Nc1ccc(Cl)cc1 [Compound 5b, N-(4-Chlorophenyl)-2-[5-(furan-2-ylmethylene)-2,4-dioxothiazolidin-3-yl]acetamide]",28.2 ± 3.9,23.8 ± 3.9,36.2 ± 3.9,25.7 ± 3.9
,,"O=C(CN1C(=O)SC(=Cc2cccs2)C1=O)Nc1ccccc1 [Compound 4a, 2-[2,4-Dioxo-5-(thiophen-2-ylmethylene)thiazolidin-3-yl]-N-phenylacetamide]",58.2 ± 0.7,52.1 ± 5.2,51 ± 2.5,63.6 ± 3.8
0.276,,"Cc1ccc(NC(=O)CN2C(=O)SC(=Cc3ccco3)C2=O)cc1 [Compound 5d, 2-[5-(Furan-2-ylmethylene)-2,4-dioxothiazolidin-3-yl]-N-(p-tolyl)acetamide]",26.4 ± 1.4,23.6 ± 3.9,29.7 ± 4.1,25.3 ± 4.5
,,"Cc1ccc(NC(=O)CN2C(=O)SC(=Cc3cccs3)C2=O)cc1 [Compound 4e, 2-[2,4-Dioxo-5-(thiophen-2-ylmethylene)thiazolidin-3-yl]-N-(p-tolyl)acetamide]",21.3 ± 3.9,24.5 ± 3.9,34 ± 3.9,25.2 ± 3.9
0.263,0.41,"CC(C)c1ccc(NC(=O)CN2C(=O)SC(=Cc3ccco3)C2=O)cc1 [Compound 5e, 2-[5-(Furan-2-ylmethylene)-2,4-dioxothiazolidin-3-yl]-N-(4-isopropylphenyl)acetamide]",10.7 ± 3.9,23.8 ± 3.9,32.9 ± 3.9,14.5 ± 3.9
,,"O=C(CN1C(=O)SC(=Cc2cccs2)C1=O)Nc1ccc(Cl)cc1 [Compound 4b, N-(4-Chlorophenyl)-2-[2,4-dioxo-5-(thiophen-2-ylmethylene)thiazolidin-3-yl]acetamide]",38.4 ± 3.9,35.4 ± 5.1,36.1 ± 1.9,36.9 ± 1.3
,,"O=C(CN1C(=O)SC(=Cc2ccco2)C1=O)Nc1ccc(C(=O)O)cc1 [Compound 5g, 4-{2-[5-(Furan-2-ylmethylene)-2,4-dioxothiazolidin-3-yl]acetamido}benzoic acid]",9.04 ± 3.9,3.86 ± 3.9,7.55 ± 3.9,10.7 ± 3.9
,,"O=C(CN1C(=O)SC(=Cc2ccco2)C1=O)Nc1ccccc1 [Compound 5a, 2-[5-(Furan-2-ylmethylene)-2,4-dioxothiazolidin-3-yl]-N-phenylacetamide]",48.3 ± 0.7,52.1 ± 5.2,53.2 ± 2.5,59.6 ± 3.8
,,"O=C(CN1C(=O)SC(=Cc2ccco2)C1=O)Nc1ccc(F)cc1 [Compound 5c, N-(4-Fluorophenyl)-2-[5-(furan-2-ylmethylene)-2,4-dioxothiazolidin-3-yl]acetamide]",35.7 ± 3.9,24.1 ± 2.5,35.4 ± 1.9,28.6 ± 1.3
,,"O=C(CN1C(=O)SC(=Cc2cccs2)C1=O)Nc1ccc(F)cc1 [Compound 4c, 2-[2,4-Dioxo-5-(thiophen-2-ylmethylene)thiazolidin-3-yl]-N-(4-fluorophenyl)acetamide]",42.5 ± 3.9,34.2 ± 5.1,38.3 ± 1.9,39 ± 1.3
,,"CNC(=O)c1cc(Oc2ccc(NC(=O)Nc3ccc(Cl)c(C(F)(F)F)c3)cc2)ccn1 [Sorafenib, sorafenib, reference compound]",,4 ± 0.33,,
,0.36,"COc1ccc(NC(=O)CN2C(=O)SC(=Cc3cccs3)C2=O)cc1 [Compound 4f, 2-[2,4-Dioxo-5-(thiophen-2-ylmethylene)thiazolidin-3-yl]-N-(4-methoxyphenyl)acetamide]",17.7 ± 3.9,10.2 ± 3.9,22.7 ± 3.9,22.3 ± 3.9
,0.23,"O=C(CN1C(=O)SC(=Cc2cccs2)C1=O)Nc1ccc(C(=O)O)cc1 [Compound 4g, 4-{2-[2,4-Dioxo-5-(thiophen-2-ylmethylene)thiazolidin-3-yl]acetamido}benzoic acid]",11.2 ± 3.9,6.22 ± 3.9,12.9 ± 3.9,10.7 ± 3.9
